From the supplement of paper PMC7017272
± gives the standard deviation of the averaged measurements.

Key:
UT-SCC-24A [1] = test: drug sensitivity score (DSS); higher = more sensitive; details: treatment time: 3 days
Procedure: (§1)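 HNSCC cell lines (500 cells/well, 384-well) were cultured on plastic, on top of (2D) or embedded (3D) in Matrigel or human leiomyoma matrix Myogel (500 ug/mL; Myogel 3D mixed with rat collagen I). Cells were treated for 3 days with 5 ten-fold concentrations of each drug, and viability was read by CellTiter-Glo. Suffixes _1/_2/_3 on drug names are replicates.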

UT-SCC-24A [2] = test: maximal % inhibition of viability relative to DMSO; higher = stronger effect; details: treatment time: 3 days
Procedure: as §1, with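 “CellTiter-Glo. Viability was normalised to DMSO (0% inhibition) and 100 uM benzethonium chloride (100% inhibition) controls and fitted with the FIMM DSRT pipeline to give IC50 (nM), maximal % inhibition and the drug sensitivity score (DSS).” for “CellTiter-Glo.”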

UT-SCC-106A [3] = test: drug sensitivity score (DSS); higher = more sensitive; extreme values may be limits of the assay; details: treatment time: 3 days
How it was run: (§2)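 Viability was read with CellTiter-Glo 2.0 luminescence and scaled against vehicle (0.1% DMSO) and cell-killing control wells. The assay used HPV-negative HNSCC cell lines at 500 cells/well in 384-well plates, grown on plastic, on Matrigel or Myogel coatings (500 µg/mL), or embedded in Matrigel or Myogel plus rat collagen I, and treated for 3 days at five 10-fold concentrations. IC50, maximal inhibition and drug sensitivity score were derived from percent-inhibition dose–response curves fitted in the FIMM pipeline.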

UT-SCC-14 = test: as above; details: treatment time: 3 days
How it was run: as §2

UT-SCC-24B = test: as above; details: treatment time: 3 days
How it was run: as §2

UT-SCC-28 = test: as above; details: treatment time: 3 days
How it was run: as §2

UT-SCC-40 [4] = test: as above; details: treatment time: 3 days
How it was run: as §2

UT-SCC-42A = test: as above; details: treatment time: 3 days
How it was run: as §2

UT-SCC-42B [5] = test: as above; details: treatment time: 3 days
How it was run: as §2

UT-SCC-44 [6] = test: as above; details: treatment time: 3 days
How it was run: as §2

UT-SCC-73 [7] = test: as above; details: treatment time: 3 days
How it was run: as §2

UT-SCC-81 = test: as above; details: treatment time: 3 days
How it was run: as §2

UT-SCC-8 = test: as above; details: treatment time: 3 days
How it was run: as §2

UT-SCC-106A [8] = test: relative IC50 (midpoint of the fitted curve; maximal inhibition may be below 50%); higher = less potent; details: treatment time: 3 days
How it was run: as §2

UT-SCC-40 [9] = test: as above; details: treatment time: 3 days
How it was run: as §2

UT-SCC-42B [10] = test: as above; details: culture condition: on top of Myogel; treatment time: 3 days
How it was run: as §2

UT-SCC-44 [11] = test: as above; details: treatment time: 3 days
How it was run: as §2

UT-SCC-73 [12] = test: as above; details: treatment time: 3 days
How it was run: as §2

UT-SCC-24A [13] = test: relative IC50 (midpoint of the fitted curve; maximal inhibition may be below 50%); higher = less potent; details: treatment time: 3 days
Procedure: as §1, with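 “CellTiter-Glo. Viability was normalised to DMSO (0% inhibition) and 100 uM benzethonium chloride (100% inhibition) controls and fitted with the FIMM DSRT pipeline to give IC50 (nM), maximal % inhibition and the drug sensitivity score (DSS).” for “CellTiter-Glo.”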

[14] = culture condition: embedded in Matrigel
[15] = culture condition: embedded in Myogel + collagen I
[16] = culture condition: on top of Matrigel
[17] = culture condition: on top of Myogel
[18] = culture condition: plastic 2D (no matrix)

CO[C@H]1C[C@@H]2CC[C@@H](C)[C@@](O)(O2)C(=O)C(=O)N2CCCC[C@H]2C(=O)O[C@H]([C@H](C)C[C@@H]2CC[C@@H](OP(C)(C)=O)[C@H](OC)C2)CC(=O)[C@H](C)/C=C(\C)[C@@H](O)[C@@H](OC)C(=O)[C@H](C)C[C@H](C)/C=C/C=C/C=C/1C [Ridaforolimus]
drug sensitivity score (UT-SCC-24A [1]; [14]): 10.2 ± 10 DSS | drug sensitivity score (UT-SCC-24A [1]; [15]): 5.43 ± 0.71 DSS | drug sensitivity score (UT-SCC-24A [1]; [16]): 4.57 ± 1.2 DSS | drug sensitivity score (UT-SCC-24A [1]; [17]): 5.03 ± 1.4 DSS | drug sensitivity score (UT-SCC-24A [1]; [18]): 5.87 ± 0.67 DSS | maximal % inhibition of viability (UT-SCC-24A [2]; [14]): 56.1 ± 36% | maximal % inhibition of viability (UT-SCC-24A [2]; [15]): 35.7 ± 4% | maximal % inhibition of viability (UT-SCC-24A [2]; [16]): 29.4 ± 3.8% | maximal % inhibition of viability (UT-SCC-24A [2]; [17]): 32.7 ± 3.6% | maximal % inhibition of viability (UT-SCC-24A [2]; [18]): 33 ± 5.9% | drug sensitivity score (UT-SCC-106A [3]; [14]): 4.2 ± 1.4 DSS | drug sensitivity score (UT-SCC-106A [3]; [15]): 2.63 ± 0.21 DSS | drug sensitivity score (UT-SCC-106A [3]; [16]): 6.4 ± 3.5 DSS | drug sensitivity score (UT-SCC-106A [3]; [17]): 2.9 ± 1.1 DSS | drug sensitivity score (UT-SCC-106A [3]; [18]): 7.57 ± 1.7 DSS | drug sensitivity score (UT-SCC-14; [14]): 13.8 ± 3.1 DSS | drug sensitivity score (UT-SCC-14; [15]): 15.2 ± 1.2 DSS | drug sensitivity score (UT-SCC-14; [16]): 12.9 ± 1.5 DSS | drug sensitivity score (UT-SCC-14; [17]): 13 ± 2.4 DSS | drug sensitivity score (UT-SCC-14; [18]): 11.9 ± 2.8 DSS | drug sensitivity score (UT-SCC-24B; [14]): 2.9 ± 2.8 DSS | drug sensitivity score (UT-SCC-24B; [15]): 7.87 ± 0.8 DSS | drug sensitivity score (UT-SCC-24B; [16]): 3.8 ± 0.66 DSS | drug sensitivity score (UT-SCC-24B; [17]): 4.63 ± 1.4 DSS | drug sensitivity score (UT-SCC-24B; [18]): 5.37 ± 2 DSS | drug sensitivity score (UT-SCC-28; [14]): 4.87 ± 2.8 DSS | drug sensitivity score (UT-SCC-28; [15]): 4.37 ± 4 DSS | drug sensitivity score (UT-SCC-28; [16]): 6.87 ± 2.6 DSS | drug sensitivity score (UT-SCC-28; [18]): 6.37 ± 3.5 DSS | drug sensitivity score (UT-SCC-40 [4]; [14]): 4.97 ± 2.8 DSS | drug sensitivity score (UT-SCC-40 [4]; [15]): 7.83 ± 3.9 DSS | drug sensitivity score (UT-SCC-40 [4]; [16]): 4.8 ± 0.78 DSS | drug sensitivity score (UT-SCC-40 [4]; [17]): 4.23 ± 0.46 DSS | drug sensitivity score (UT-SCC-40 [4]; [18]): 3.77 ± 0.47 DSS | drug sensitivity score (UT-SCC-42A; [14]): 3.43 ± 0.55 DSS | drug sensitivity score (UT-SCC-42A; [15]): 5.73 ± 1.1 DSS | drug sensitivity score (UT-SCC-42A; [16]): 6.43 ± 1.4 DSS | drug sensitivity score (UT-SCC-42A; [17]): 5.2 ± 1.3 DSS | drug sensitivity score (UT-SCC-42A; [18]): 5.6 ± 2.1 DSS | drug sensitivity score (UT-SCC-42B [5]; [14]): 0.8 ± 0.76 DSS | drug sensitivity score (UT-SCC-42B [5]; [16]): 0.233 ± 0.4 DSS | drug sensitivity score (UT-SCC-42B [5]; [17]): 0.367 ± 0.4 DSS | drug sensitivity score (UT-SCC-42B [5]; [18]): 0.4 ± 0.36 DSS | drug sensitivity score (UT-SCC-44 [6]; [14]): 6.7 ± 3.6 DSS | drug sensitivity score (UT-SCC-44 [6]; [15]): 6.23 ± 0.99 DSS | drug sensitivity score (UT-SCC-44 [6]; [16]): 10.7 ± 2.2 DSS | drug sensitivity score (UT-SCC-44 [6]; [17]): 11.2 ± 1.4 DSS | drug sensitivity score (UT-SCC-44 [6]; [18]): 9.63 ± 3 DSS | drug sensitivity score (UT-SCC-73 [7]; [14]): 7.23 ± 3 DSS | drug sensitivity score (UT-SCC-73 [7]; [15]): 8.57 ± 6 DSS | drug sensitivity score (UT-SCC-73 [7]; [16]): 6.9 ± 1.3 DSS | drug sensitivity score (UT-SCC-73 [7]; [17]): 8 ± 0.79 DSS | drug sensitivity score (UT-SCC-73 [7]; [18]): 4.93 ± 0.94 DSS | drug sensitivity score (UT-SCC-81; [14]): 8.6 ± 4.5 DSS | drug sensitivity score (UT-SCC-81; [15]): 11.8 ± 3.1 DSS | drug sensitivity score (UT-SCC-81; [16]): 9.37 ± 2.3 DSS | drug sensitivity score (UT-SCC-81; [17]): 10.9 ± 4 DSS | drug sensitivity score (UT-SCC-81; [18]): 8.77 ± 5 DSS | drug sensitivity score (UT-SCC-8; [14]): 9.67 ± 4 DSS | drug sensitivity score (UT-SCC-8; [15]): 4.03 ± 1 DSS | drug sensitivity score (UT-SCC-8; [16]): 9.27 ± 3.7 DSS | drug sensitivity score (UT-SCC-8; [17]): 12.5 ± 4.2 DSS | drug sensitivity score (UT-SCC-8; [18]): 10.2 ± 3.6 DSS | relative IC50 (UT-SCC-106A [8]; [14]): 6.54 nM | relative IC50 (UT-SCC-106A [8]; [17]): 8.68 nM | relative IC50 (UT-SCC-40 [9]; [14]): 2.37 nM | relative IC50 (UT-SCC-40 [9]; [17]): 1.94 nM | relative IC50 (UT-SCC-40 [9]; [18]): 1.94 nM | relative IC50 (UT-SCC-42B [10]): 17.4 nM | relative IC50 (UT-SCC-44 [11]; [14]): 0.909 nM | relative IC50 (UT-SCC-44 [11]; [15]): 4.16 nM | relative IC50 (UT-SCC-44 [11]; [17]): 0.271 nM | relative IC50 (UT-SCC-73 [12]; [16]): 0.734 nM | relative IC50 (UT-SCC-73 [12]; [17]): 1.48 nM | relative IC50 (UT-SCC-73 [12]; [18]): 3 nM | relative IC50 (UT-SCC-24A [13]; [15]): 2.61 nM | relative IC50 (UT-SCC-24A [13]; [17]): 3.5 nM | relative IC50 (UT-SCC-24A [13]; [18]): 1.98 nM
